Test results from PMC3038857, “Using Nuclear Receptor Activity to Stratify Hepatocarcinogens” (PLoS ONE, 2011).
Read-outs that look alike come from different tables or passages of the source.

What was measured:
Rat Liver [1] = conditions: ref ToxRefDB, cited from earlier work
Rat Liver [2] = conditions: ref ToxRefDB, cited from earlier work; remark: listed apart in the source
Rat Liver [3] = conditions: ref ToxRefDB, cited from earlier work; remark: listed apart in the source
Mouse Liver = conditions: liver, ref ToxRefDB, cited from earlier work
PXR (NR1I2) = molecular target: T1, PXR (NR1I2) (Homo sapiens, UniProt O75469); assay: ATG_PXRE_CIS: Factorial reporter gene assay (HepG2); assay type: cell-based; set-up: endogenous in cells; host or cells: HepG2
T1 sequence (O75469 1-434): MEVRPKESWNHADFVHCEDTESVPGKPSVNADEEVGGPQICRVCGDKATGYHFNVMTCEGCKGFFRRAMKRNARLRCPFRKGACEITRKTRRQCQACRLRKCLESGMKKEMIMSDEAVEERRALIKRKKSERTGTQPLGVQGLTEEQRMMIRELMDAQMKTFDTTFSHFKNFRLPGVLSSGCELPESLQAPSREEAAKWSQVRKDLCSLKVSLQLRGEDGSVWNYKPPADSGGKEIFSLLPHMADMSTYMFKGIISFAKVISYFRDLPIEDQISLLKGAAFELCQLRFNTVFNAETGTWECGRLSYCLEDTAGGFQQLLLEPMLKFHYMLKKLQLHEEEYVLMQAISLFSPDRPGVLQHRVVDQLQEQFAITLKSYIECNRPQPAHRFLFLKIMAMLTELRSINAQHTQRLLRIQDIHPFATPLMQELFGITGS
Experimental: A multiple reporter transcription unit (MRTU) library consisting of 48 transcription factor binding sites was transfected into the HepG2 human liver hepatoma cell line. In addition to the cis-acting reporter genes (CIS), a modification of the approach was used to generate a trans-system (TRANS) with a mammalian one-hybrid assay consisting of an additional 25 MRTU library reporting the activity of nuclear receptor super-family members. […] These assays were performed by Attagene Inc. (Morrisville NC) under contract to EPA.
In addition to the cis-acting reporter genes (CIS), a modification of the approach was used to generate a trans-system (TRANS) with a mammalian one-hybrid assay consisting of an additional 25 MRTU library reporting the activity of nuclear receptor super-family members. […] Chemicals were then tested in the CIS and TRANS assays at seven concentrations starting at the MTC and followed by three-fold serial dilutions. These assays were performed by Attagene Inc. (Morrisville NC) under contract to EPA. Detailed description of the methods, data and analysis methods for this dataset will be presented in a separate publication.

[4] = rat chronic study, liver, any lesion, coded 6 / 0, code not explained in the table
[5] = rat chronic study, liver, preneoplastic lesion, coded 6 / 0, code not explained in the table
[6] = rat chronic study, liver, neoplastic lesion, coded 6 / 0, code not explained in the table
[7] = mouse chronic study, any lesion, coded 6 / Inf, code not explained in the table
[8] = rat chronic study, liver, coded 6 / 0, code not explained in table
[9] = mouse chronic study, coded 6 / Inf, code not explained in table

| Structure (SMILES) | CHR_Rat_Liver_1_AnyLesion (Rat Liver [1]; [4]) | CHR_Rat_Liver_2_PreneoplasticLesion (Rat Liver [2]; [5]) | CHR_Rat_Liver_3_NeoplasticLesion (Rat Liver [3]; [6]) | CHR_Rat_Liver_1_AnyLesion (Rat Liver [1]; [8]) | CHR_Rat_Liver_2_PreneoplasticLesion (Rat Liver [2]; [8]) | CHR_Rat_Liver_3_NeoplasticLesion (Rat Liver [3]; [8]) | further results |
| --- | --- | --- | --- | --- | --- | --- | --- |
| O=C(O)COc1ccc(Cl)cc1Cl [Dataset S3 row 2] | 6 | 0 | 0 |  |  |  |  |
| O=C(O)CCCOc1ccc(Cl)cc1Cl [Dataset S3 row 3] | 6 | 0 | 0 |  |  |  | CHR_Mouse_Liver_1_AnyLesion (Mouse Liver; [7]): 6 |
| C/C(=N\C#N)N(C)Cc1ccc(Cl)nc1 [Dataset S3 row 11] | 6 | 0 | 0 |  |  |  | CHR_Mouse_Liver_1_AnyLesion (Mouse Liver; [7]): 6 |
| CCOCN(C(=O)CCl)c1c(C)cccc1CC [Dataset S3 row 12] | 6 | 6 | 6 |  |  |  |  |
| CSC(=O)c1cccc2nnsc12 [Dataset S3 row 13] | 6 | 0 | 0 |  |  |  | CHR_Mouse_Liver_1_AnyLesion (Mouse Liver; [7]): 6 |
| CCc1cccc(CC)c1N(COC)C(=O)CCl [Dataset S3 row 15] | 6 | 0 | 0 |  |  |  |  |
| CNC(=O)ON=CC(C)(C)SC [Dataset S3 row 16] | 0 | 0 | 0 |  |  |  |  |
| CCNc1nc(NC(C)C)nc(SC)n1 [Dataset S3 row 17] | 6 | 6 | 6 |  |  |  |  |
| Clc1nc(Cl)nc(Nc2ccccc2Cl)n1 [Dataset S3 row 19] | 0 | 0 | 0 |  |  |  |  |
| COC(=O)NS(=O)(=O)c1ccc(N)cc1 [Dataset S3 row 20] | 0 | 0 | 0 |  |  |  | CHR_Mouse_Liver_1_AnyLesion (Mouse Liver; [7]): 6 |
| CCNc1nc(Cl)nc(NC(C)C)n1 [Dataset S3 row 21] | 0 | 0 | 0 |  |  |  |  |
| COC=C(C(=O)OC)c1ccccc1Oc1cc(Oc2ccccc2C#N)ncn1 [Dataset S3 row 24] | 6 | 6 | 0 |  |  |  |  |
| CNC(=O)Oc1cccc2c1OC(C)(C)O2 [Dataset S3 row 25] | 0 | 0 | 0 |  |  |  |  |
| FC(F)C(F)(F)OCC(Cn1cncn1)c1ccc(Cl)cc1Cl (stereo not drawn) [chemical 292] |  |  |  | 6 | 6 | 0 |  |
| c1ccc2[nH]c(-c3cscn3)nc2c1 [chemical 294] |  |  |  | 6 | 0 | 0 |  |
| N#C/N=C1\SCCN1Cc1ccc(Cl)nc1 [chemical 295] |  |  |  | 6 | 0 | 0 | CHR_Mouse_Liver_1_AnyLesion (Mouse Liver; [9]): 6 |
| CN(C)C(=S)SSC(=S)N(C)C [chemical 302] |  |  |  | 6 | 6 | 0 |  |

| Structure (SMILES) | CHR_Rat_Liver_1_AnyLesion (Rat Liver [1]; [4]) | CHR_Rat_Liver_2_PreneoplasticLesion (Rat Liver [2]; [5]) | CHR_Rat_Liver_3_NeoplasticLesion (Rat Liver [3]; [6]) | CHR_Rat_Liver_1_AnyLesion (Rat Liver [1]; [8]) | CHR_Rat_Liver_2_PreneoplasticLesion (Rat Liver [2]; [8]) | CHR_Rat_Liver_3_NeoplasticLesion (Rat Liver [3]; [8]) | further results |
| --- | --- | --- | --- | --- | --- | --- | --- |
| CCON=C(CC)C1=C(O)CC(c2c(C)cc(C)cc2C)CC1=O (stereo not drawn) [chemical 303] |  |  |  | 6 | 6 | 0 |  |
| COC(=O)c1ccccc1S(=O)(=O)NC(=O)N(C)c1nc(C)nc(OC)n1 [chemical 308] |  |  |  | 0 | 0 | 0 |  |
| Oc1cc(Cl)ccc1Oc1ccc(Cl)cc1Cl [chemical 312] |  |  |  | 6 | 0 | 0 |  |
| CO/N=C(/C(=O)OC)c1ccccc1CON=C(C)c1cccc(C(F)(F)F)c1 [chemical 313] |  |  |  | 0 | 0 | 0 | CHR_Mouse_Liver_1_AnyLesion (Mouse Liver; [9]): 6 |
| COc1cc(OC)nc(NC(=O)[N-]S(=O)(=O)c2ncccc2OCC(F)(F)F)n1.[Na+] [chemical 314] |  |  |  | 0 | 0 | 0 |  |
| CCCN(CCC)c1c([N+](=O)[O-])cc(C(F)(F)F)cc1[N+](=O)[O-] [chemical 316] |  |  |  | 0 | 0 | 0 |  |
| CC1(C)CCC(=Cc2ccc(Cl)cc2)C1(O)Cn1cncn1 (stereo not drawn) [chemical 318] |  |  |  | 6 | 0 | 0 | CHR_Mouse_Liver_1_AnyLesion (Mouse Liver; [9]): 6 |
| CCC(C)(NC(=O)c1cc(Cl)c(C)c(Cl)c1)C(=O)CCl (stereo not drawn) [chemical 320] |  |  |  | 0 | 0 | 0 |  |
| CNC(=O)ON=C(SC)C(=O)N(C)C [r231] |  |  |  |  |  |  | CHR_Rat_Liver_1_AnyLesion (Rat Liver [1]; rat, chronic study): 0; CHR_Rat_Liver_2_PreneoplasticLesion (Rat Liver [2]; rat, chronic study): 0; CHR_Rat_Liver_3_NeoplasticLesion (Rat Liver [3]; rat, chronic study): 0; ATG_PXRE_CIS (PXR (NR1I2); HepG2): 4.481 |
| CCCOC(=O)NCCCN(C)C.Cl [r257] |  |  |  |  |  |  | CHR_Rat_Liver_1_AnyLesion (Rat Liver [1]; rat, chronic study): 0; CHR_Rat_Liver_2_PreneoplasticLesion (Rat Liver [2]; rat, chronic study): 0; CHR_Rat_Liver_3_NeoplasticLesion (Rat Liver [3]; rat, chronic study): 0 |
| CCC(=O)Nc1ccc(Cl)c(Cl)c1 [r258] |  |  |  |  |  |  | CHR_Rat_Liver_1_AnyLesion (Rat Liver [1]; rat, chronic study): 6; CHR_Rat_Liver_2_PreneoplasticLesion (Rat Liver [2]; rat, chronic study): 6; CHR_Rat_Liver_3_NeoplasticLesion (Rat Liver [3]; rat, chronic study): 0; ATG_PXRE_CIS (PXR (NR1I2); HepG2): 4.337 |
| O=C(O)c1c(Cl)ccc2cc(Cl)cnc12 [r276] |  |  |  |  |  |  | CHR_Rat_Liver_1_AnyLesion (Rat Liver [1]; chronic study, rat liver): 0; CHR_Rat_Liver_2_PreneoplasticLesion (Rat Liver [2]; chronic study, rat liver): 0; CHR_Rat_Liver_3_NeoplasticLesion (Rat Liver [3]; chronic study, rat liver): 0 |
| CCS(=O)(=O)c1cccnc1S(=O)(=O)NC(=O)Nc1nc(OC)cc(OC)n1 [r281] |  |  |  |  |  |  | CHR_Rat_Liver_1_AnyLesion (Rat Liver [1]; chronic study, rat liver): 6; CHR_Rat_Liver_2_PreneoplasticLesion (Rat Liver [2]; chronic study, rat liver): 6; CHR_Rat_Liver_3_NeoplasticLesion (Rat Liver [3]; chronic study, rat liver): 0 |
| CNC(=O)N(C)c1nnc(C(C)(C)C)s1 [r293] |  |  |  |  |  |  | ATG_PXRE_CIS (PXR (NR1I2); HepG2 reporter): 4.357 |
| COC(=O)c1ccc(CNS(C)(=O)=O)cc1S(=O)(=O)NC(=O)Nc1nc(OC)cc(OC)n1 [row 194] |  |  |  |  |  |  | CHR_Mouse_Liver_1_AnyLesion (Mouse Liver; chronic mouse study): 6; CHR_Rat_Liver_1_AnyLesion (Rat Liver [1]; chronic rat study, liver): 0; CHR_Rat_Liver_2_PreneoplasticLesion (Rat Liver [2]; chronic rat study, liver): 0; CHR_Rat_Liver_3_NeoplasticLesion (Rat Liver [3]; chronic rat study, liver): 0 |
| CNC(=O)ON=C(C)SC [row 200] |  |  |  |  |  |  | CHR_Rat_Liver_1_AnyLesion (Rat Liver [1]; chronic rat study, liver): 0; CHR_Rat_Liver_2_PreneoplasticLesion (Rat Liver [2]; chronic rat study, liver): 0; CHR_Rat_Liver_3_NeoplasticLesion (Rat Liver [3]; chronic rat study, liver): 0 |
| COCCO [row 203] |  |  |  |  |  |  | ATG_PXRE_CIS (PXR (NR1I2); HepG2): 4.602 |
